The conditions of data set [1]: dose escalation study, 50-4800 μg/m^2; cited from earlier work.
The test system of data set [2] is P815 tumor cells infected with live PR8 virus. Kind of data set: 51Cr release assay for CTL activity against PR8-infected P815 target cells. Format: in vivo. Particulars: Balb/c mice; inactivated PR8 with or without αGalCer intranasal; splenocytes, 51Cr-labeled PR8-infected P815 targets, 6 hours. The method, then: To examine the role of αGalCer as an adjuvant of a killed virus, influenza virus A/PR/8/34 (PR8), which was inactivated with formalin, was used as an antigen to examine the anti-virus immune response. Balb/c mice were immunized with indicated amounts (1 μg, 10 μg) of inactivated PR8 alone or together with αGalCer by the intranasal administration twice at two-week intervals. Two weeks after the final immunization, the mice were sacrificed and following experiments were performed.
Single cells, separated from the spleen of the sacrificed mice, were cultured with stimulator cells for 5 days. To obtain stimulator cells, single cells were taken from the spleen of a naïve Balb/c mouse, which was irradiated with γ-ray, resulting in the inactivation of the cells. Then, the inactivated cells were infected with a live PR8 virus. After culturing splenocytes with stimulator cell for five days, effector cells were three-fold diluted serially, followed by further culture with ^51Cr-labeled target cells for 6 hours. Then, the amounts of ^51Cr […] in the culture supernatant were measured. The target cells were prepared by infecting P815 tumor cells (purchased from ATCC) with live PR8 virus and labeled with ^51Cr.

Data set [3] concerns OVA257-264 pulsed CFSE^high spleen cells. The data set can be described thus: In vivo CTL assay: specific lysis of OVA257-264 pulsed CFSE-high cells by FACS, C57BL/6 mice. Particulars: all αGalCer dose groups + OVA intranasal, vs vehicle alone or OVA alone, dose-dependent. The method, then:
Spleen cells were separated from naive C57BL/6 mice, which were pulsed with 1 μM of OVA257-264 at 37° C. for 90 minutes. The pulsed cells were labeled with 20 μM of CFSE (Molecular Probes, USA) at 37° C. for 15 minutes, resulting in OVA257-264 pulsed CFSE^high cells. In the meantime, the unpulsed cells were labeled with 2 μM of CFSE (Molecular Probes, USA) at 37° C. for 15 minutes, resulting in the OVA257-264 unpulsed CFSE^low cells. The equal numbers of peptide-pulsed CFSE^high cells and unpulsed CFSE^low cells were mixed, which were intravenously injected to mice at the number of 2×10^7 cells one week after the final immunization. 24 hours later, specific lysis of peptide-pulsed CFSE^high cell was investigated by using FACS in spleen, mesenteric lymph node (MLN) and cervical lymph node (CLN).
Background: Flow cytometry measures light scatter and fluorescence of single cells or particles in a stream.

The conditions of data set [4]: rodents and apes; cited from earlier work.
Data set [5] deals with OT1 cells (OVA specific CD8+ T cells). Kind of data set: Intracellular IL-2 and IFN-γ of OT1 cells after OVA257-264 peptide stimulation. The conditions noted are these: OVA + 2.0 μg αGalCer intranasal vs OVA alone; 5 μM OVA257-264 peptide for 6 hours. Format: in vivo, mouse. The method, then: To confirm whether the activated T-cells were differentiated into fully functional CTL, 2×10^6/ml of cells were further stimulated with 5 μM of OVA257-264 peptide for 6 hours, by the same manner as described in Example 4, and then intracellular IL-2 and IFN-γ levels were measured by using APC-conjugated IL-2 (Clone JES6-5H4, Biolegend Inc., USA) and APC-conjugated IFN-γ mAb (Clone XMG1.2 Biolegend Inc., USA).

The subject of data set [6] is IFN-γ and IL-4 secretion. The data set can be described thus: IFN-γ and IL-4 secretion of spleen and CLN cells cultured with OVA (sandwich ELISA), C57BL/6 mice. Type of data set: in vivo. Particulars: cells cultured with 500 μg/ml OVA for 4 days, one week after final immunization. The method, then: It was directly investigated whether α-GalCer nasal vaccine adjuvant skews immune response into Th1 or Th2 immune response. To measure the secretions of cytokines, cells were obtained from spleen and cervical lymph node (CLN) a week after the final immunization. The cells ([…]) were cultured with 500 μg/ml of OVA for 4 days. The secretions of IFN-γ and IL-4 in the culture supernatant were measured by using the mouse IFN-γ and IL-4 OptELA set ELISA kit (BD Pharmigen) according to the manufacturer's instruction.
In general terms: An ELISA detects its analyte on a solid surface through an enzyme-linked reagent.

Entries after “also recorded” stand apart in the source; their conditions may differ.

Turning to `CCCCCCCCCCCCCCCCCCCCCCCCCC(=O)N[C@@H](CO[C@H]1O[C@H](CO)[C@H](O)[C@H](O)[C@H]1O)[C@H](O)[C@H](O)CCCCCCCCCCCCCC` [αGalCer, alpha-galactosylceramide], the dose-limiting toxicity result in data set [1] is recorded as “does not cause dose-limiting toxicity”. Further, the “target cell-specific lytic activity” value in data set [2] is listed as “observed only in mice concurrently treated with αGalCer; also recorded: strong lytic activity”. The “CTL cytotoxicity (specific lysis) in spleen, MLN and CLN” value in data set [3] was “dose-dependent lytic activity”; in data set [3] (listed as α-GalCer) it was “higher cytotoxicity”. Besides, the toxicity result in data set [4] was “seems not to induce toxicity”. In addition, the “levels of OT1 cells secreting IL-2 and IFN-γ” value in data set [5] is “higher”. The “secretions of IFN-γ and IL-4 in spleen and CLN” value in data set [6] is on record as “significantly increased”.

Values taken from patent publication US20080317769A1, “Vaccine Composition Comprising Alpha-Galactosylceramide as an Adjuvant For Intranasal Administration” (priority 2005, published 2008).
